Key:
[1] = tested on: peritoneal recruitment of macrophages; test: Thioglycollate-induced leukocyte peritoneal recruitment assay; type: in vivo, C3H mice; conditions: 1 mg/kg
Protocol: The effect of a sCD164 variant on immune cells recruitment was tested using the thioglycollate-induced leukocyte peritoneal recruitment assay. In this example the capacity of ssCD164-Fc (SEQ ID NO: 16) to decrease monocytes/macrophage recruitment was evaluated.
Forty-eight hours after the challenge, the animals were sacrificed and the lavage of the peritoneal cavity was conducted using 2×5 ml PBS-1 mM EDTA (+4° C.). After centrifugation (10 min at 3000 rpm), the pellet was resuspended in 1 ml PBS. The peritoneal cells were counted using a Beckman/Coulter counter. Dexamethasone (1 mg/kg), the anti-inflammatory compound was used as reference positive control.

[2] = tested on: LPS-induced TNF-α release; test: LPS induced TNF-α release animal model (Example 10); type: in vivo, C3H/HeN mice; conditions: 0.1 mg/kg, sc, 15 minutes prior to LPS; plasma 90 minutes after LPS; p<0.001
Protocol: LPS(O111:B4; SIGMA) is injected (0.3 mg/kg, ip) in C3H/HeN mice (Charles River, France). Ninety minutes later blood is sampled and plasma TNF-α is determined using an ELISA kit (R&D). The CD164 variant to be tested and dexamethasone are diluted in PBS and injected (Sf-CD164 at 0.03, 0.1 and 0.3 mg/kg, iv; or dexamethasone at 0.1 mg/kg, sc) 15 minutes prior to LPS administration.

C3H mice = test: Concanavalin A-induced hepatitis in mice; type: in vivo; conditions: 0.3 mg/kg, sc
Source text: Several sCD164 variants have been shown in vitro to inhibit secretion of certain cytokines by ConA-stimulated human peripheral blood mononuclear cells (PBMC), see Examples 2 and 3 above. Since cytokines play a crucial role in T-cell induced ConA induced liver hepatitis (Seino et al. 2001, Kusters, 1996; Toyonaga et al. 1994), the present model was used to further test the sCD164 variants.
Eighteen hours later, the animals were sacrificed and the blood was sampled. Serum levels of transaminases (alanine transaminase (ALAT), aspartate aminotransferase (ASAT)) were determined in serum using a clinical analyzer (Hitachi). Dexamethasone (0.3 mg/kg, sc) was used as reference.

female mice (Balb/c) = test: Dextran Sodium Sulfate-induced ulcerative colitis model; type: in vivo
Protocol: The DSS model of colitis mimics some aspects of the human affection such as macrophage infiltration and up regulation of inflammatory cytokines (i.e. TNFα, IL-1p, IL-6) in the colon mucosa.
Ulcerative colitis (UC) was induced in female mice (Balb/c, 20-22 g, Elevage Janvier) by Dextran Sodium Sulfate (DSS 4%) administered in drinking water (oral route). The mice had free access to DSS during 7 days. Body weight was determined daily. The severity of the UC was assessed by a clinical score estimating the constituency of the stool (0=firm, 1=loose, 2=diarrhea) and the presence of blood (0=no blood, 1=occult blood, 2=gross rectal bleeding). Seven days after the induction of the disease, the animals were sacrificed. The length and the weight of the colon were determined and the ratio Weight/Length/100 g body weight was calculated. The spleen weight was also determined. Blood was sampled to determine serum amyloid protein (SAA) using a specific ELISA.
Test substances or vehicle (PBS/0.02% BSA) was administered at days 3, 4, 5 and 6 after the induction of the UC. Enbrel® (1 mg/kg, sc) was used as reference compound. Three studies were performed as per the following table:
In Study 3, the content of IL-1β in the colon was also measured.

Balb/c mice = test: K/BxN serum transfer model of arthritis; type: in vivo; conditions: 10 mg/kg sc once daily, 3 days per week
Protocol: This is a passive model of arthritis, induced by serum transfer of K/B×N mice (spontaneously develop arthritis) to naïve mice. This model depends on macrophages and neutrophils. Inflammatory cytokines such as TNFα and IL-1β play an important role in the development of the disease.
Eight week old Balb/c mice (Charles River) received by iv route 150 μl of K/B×N serum (Charles McKay, Australia), containing high level of auto-antibodies against glucose-6-phosphate isomerase. They evolved severe arthritis assessed with a clinical score (0-12) evaluating the presence of swelling, erythema, edema, joint rigidity and ankylosis. The final score was the sum of scores on individual paws. The swelling of ankle, fore paw and hind paw was measure using a caliper. The clinical score and the swelling were determined every day. Fourteen days after the induction of the disease blood was sampled to determine osteocalcin and the legs were removed and fixed in formalin for histology.
Enbrel® (10 mg/kg, sc, once daily, 3 days a week) was used as reference compound.

[3] = Study 1, reference 1 mg/kg, ip (so in the source)

With `C[C@@H]1C[C@H]2[C@@H]3CCC4=CC(=O)C=C[C@]4(C)[C@@]3(F)[C@@H](O)C[C@]2(C)[C@@]1(O)C(=O)CO` [Dexamethasone, reference compound] the “reduction of peritoneal recruitment of macrophages” value ([1]; iv) was 94%, the “reduction of peritoneal recruitment of macrophages” value ([1]; sc) was 61% and the “inhibition of LPS-induced TNF-α release” value [2] was 72%. The “reduction of the level of serum transaminases” value (C3H mice) was 96%.

For Enbrel® [reference compound], the body weight loss (female mice (Balb/c); [3]) was “not prevented”, the “colon reduction, length” value (female mice (Balb/c); [3]) was −24% and the “colon reduction, ratio weight/length” value (female mice (Balb/c); [3]) was −29%. The “increase in serum amyloid protein A” value (female mice (Balb/c); [3]) was −37%, the splenomegaly (female mice (Balb/c); [3]) was “not prevented” and the clinical score (female mice (Balb/c); Study 1, reference 1 mg/kg, ip (so in the source), day 6) was −23%. The “colon reduction, length” value (female mice (Balb/c); Study 2, 1 mg/kg, sc) was −17%, the “colon reduction, ratio weight/length” value (female mice (Balb/c); Study 2, 1 mg/kg, sc) was −31% and the “increase in serum amyloid protein A” value (female mice (Balb/c); Study 2, 1 mg/kg, sc) was −36%. The splenomegaly (female mice (Balb/c); Study 2, 1 mg/kg, sc) was “not improved”, the clinical score (female mice (Balb/c); Study 2, 1 mg/kg, sc, day 5) was −21% and the “colon reduction, length” value (female mice (Balb/c); Study 3, 1 mg/kg, sc) was −29%. The “colon reduction, ratio weight/length” value (female mice (Balb/c); Study 3, 1 mg/kg, sc) was −33%, the “content of IL-1β in colon” value (female mice (Balb/c); Study 3, 1 mg/kg, sc) was “trended to reduce” and the “serum amyloid A protein” value (female mice (Balb/c); Study 3, 1 mg/kg, sc) was “trended to reduce”. The splenomegaly (female mice (Balb/c); Study 3, 1 mg/kg, sc) was −27%, the body weight loss (female mice (Balb/c); Study 3, 1 mg/kg, sc, day 5) was −83% and the clinical score (female mice (Balb/c); Study 3, 1 mg/kg, sc, day 5) was −38%. For the same compound, the clinical score (female mice (Balb/c); Study 3, 1 mg/kg, sc, day 7) was −30%, the “decrease of clinical score” value (Balb/c mice; Study 1) was 25% and the “decrease of paw swelling” value (Balb/c mice; Study 1) was 36%. The “decrease of serum osteocalcin” value (Balb/c mice; Study 1) was 86%, the “decrease of clinical score” value (Balb/c mice; Study 2) was 31% and the “decrease of paw swelling” value (Balb/c mice; Study 2) was 38%. For the same compound, the “decrease of serum osteocalcin” value (Balb/c mice; Study 2) was 64%.

Source: patent US7803910B2, “Soluble CD164 polypeptides” (Merck Serono S.A., priority 2005, dated 2010)
